Experimental data: patent US20190282692A1, “SELECTIVE LOCAL INHIBITION OF TNFR1-MEDIATED FUNCTIONS AT THE SITE OF ANTIGEN/ALLERGEN PRESENTATION” (priority 2012, published 2019)
Where “and” joins values, the source holds several entries; their conditions need not be identical. Equal entries are not always repeated.

Tests used:
[1] = test system: CD4+ T cells purified from human peripheral blood; details: cited from earlier work
[2] = test system: IL-4 gene transcription; details: read-out: concentration for 50% inhibition of IL-4 gene transcription; cited from earlier work
[3] = test system: NF-kappa B translocation; details: read-out: concentration for 50% inhibition of NF-kappa B translocation; cited from earlier work
[4] = test system: isolated rat cardiomyocytes; details: cited from earlier work; for reproduction of the effects of in vivo NAC treatment (glutathione repletion, unmasking of TNFR2-mediated effects): 50 μmol/L; for protection against deleterious effects of TNF-alpha on contraction: preincubation 2-3 hours, 50 μM GSM or exogenously added NAC, cardiomyocytes from control rats
[5] = cited from earlier work
[6] = test system: left ventricle; details: 3-day NAC treatment 120 mg/kg/day, 2-month post-myocardial infarction rats; cited from earlier work
[7] = test system: resting T cells; details: resting T cells from seven donors, 3 day period, NAC 1 mM to 20 mM; cited from earlier work
[8] = test system: T cells purified from human peripheral blood; details: 20 mM NAC, Con A 2.5 μg/ml, 40 hours; cited from earlier work
[9] = test system: T cells purified from human peripheral blood; details: 10 mM NAC, after two passages; cited from earlier work
[10] = test system: purified tonsillar B cells; details: 20 mM NAC; cited from earlier work
[11] = 8 days, cited from earlier work
[12] = 600 mg to 1000 mg NAC three times daily orally, 4 weeks; cited from earlier work
[13] = test system: purified tonsillar B cells; details: dose-dependent, significant with 0.5 mM, maximal with 20 mM NAC, 14 days; cited from earlier work
[14] = test system: purified peripheral blood T cells; details: 20 mM NAC, Con A 10 μg/ml; cited from earlier work
[15] = test system: purified peripheral blood T cells; details: cited from earlier work
[16] = 1800 mg/day oral, one year, added to standard therapy; cited from earlier work
[17] = cited from earlier work; remark: listed apart in the source
[18] = test system: TNFR2-mediated activation of NF-kappa B; details: high concentrations; cited from earlier work
[19] = test system: TNFR1-mediated activation of NF-kappa B; details: cited from earlier work
[20] = in vivo; cited from earlier work
[21] = test system: late phase asthmatic response to allergen challenge; details: cited from earlier work
[22] = test system: allergen-induced airways hyper-responsiveness; details: cited from earlier work
[23] = test system: TNF; type: in vivo, human; details: for side effects of anti-TNF treatment in the patient: one patient with ankylosing spondylitis; for development of allergen-specific sIgG4 during specific immunotherapy: one vespid venom-allergic patient, SIT 2003-2009
Text: Case report from the Allergy Center of the Technical University of Munich (TUM), Germany. A patient (at the first visit in July 2003) with systemic vespid venom allergy was under anti-TNF therapy with the soluble TNF receptor etanercept (Enbrel®) for ankolysing spondylitis since July 2002 (see FIG. 9). In July/2003, the patient experienced a mild to moderate anaphylactic reaction (grade 1-2 according to Ring and Messmer) with generalized urticaria, subjective breathing problems and dizziness after a wasp sting.
No sIgE was detectable against Ves v 2 and Ves v 3.
Similar results were also obtained in the ELISA analysis, where sIgG4 levels were detectable already in 2003 before SIT mainly against Ves v 1 and Ves v 5, which decreased slightly over time during SIT.
Discussion. […] Even amongst the group of SIT therapy failures/non-responders, we routinely observed an increase of sIgG4 levels to at least one allergen. Thus, this patient was the first and only one ever without any increase in sIgG4 to any of the vespid venom allergens. […] To our knowledge this was the only patient worldwide that received immunotherapy under anti-TNF inhibition treatment. Since there are several lines of evidence that TNFR2-mediated signaling is essential for the induction of tolerance, inhibition of TNFR2 appears to be responsible for the inhibitory effect of anti-TNF-alpha therapy on the efficacy of specific immunotherapy.

[24] = target: T1, TNF-alpha (Mus musculus, UniProt P06804); details: without inhibiting Teff activation; cited from earlier work
T1 construct: host or cells: mouse, in vivo
T1 sequence (P06804 80-235 limits assumed): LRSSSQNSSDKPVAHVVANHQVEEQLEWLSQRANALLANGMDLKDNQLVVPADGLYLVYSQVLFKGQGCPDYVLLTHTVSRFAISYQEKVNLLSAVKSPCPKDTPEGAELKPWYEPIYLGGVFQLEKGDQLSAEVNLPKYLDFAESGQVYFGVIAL

[25] = test system: C3 convertase; details: cited from earlier work

Compound: CC(=O)Oc1ccccc1C(=O)O [ASA, acetylsalicylic acid]
- inhibition of IL-4 secretion ([1]; 1 mM ASA): 47%
- production of IFNγ ([1]; ASA 0.1 mM-3 mM): did not affect
- production of IL-2 ([1]; ASA 0.1 mM-3 mM): did not affect
- production of IL-13 ([1]; ASA 0.1 mM-3 mM): did not affect
- IC50 [2]: ~1000 µM
- IC50 [3]: ~3000 µM

Compound: N[C@@H](CCC(=O)N[C@@H](CS)C(=O)NCC(=O)O)C(=O)O [GSH, glutathione]
- reproduction of the effects of in vivo NAC treatment ([4]; incubation 2-3 hours, 10 mmol/L): could not reproduce the effects of in vivo NAC treatment

Compound: CSC[C@H](NC(=O)CC[C@H](N)C(=O)O)C(=O)NCC(=O)O [GSM, S-Methylglutathione]
- reproduction of the effects of in vivo NAC treatment (glutathione repletion, unmasking of TNFR2-mediated effects) ([4]; incubation 2-3 hours): reproduce the effects of in vivo NAC treatment
- protection against deleterious effects of TNF-alpha on contraction [4]: protected against the deleterious effects of TNF-alpha on contraction
- solubility in water [5]: 2.61 g/liter and 8.1 mM

Compound: CC(=O)N[C@@H](CS)C(=O)O [NAC, N-acetyl-L-cysteine]
- GSH content of the left ventricle, % of control level in sham rats [6]: 75%
- cytotoxicity [7]: nontoxic
- enhancement of IL-2 production by T cells [8]: approximately 1.5 fold
- stimulation of growth of peripheral blood T cell cultures [9]: 4-6 fold
- reproduction of the effects of in vivo NAC treatment (glutathione repletion, unmasking of TNFR2-mediated effects) ([4]; incubation 2-3 hours): could not reproduce the effects of in vivo NAC treatment
- protection against deleterious effects of TNF-alpha on contraction [4]: not protected
- increase in B cell proliferation [10]: at least 5 fold
- decrease of ovalbumin-specific IgE ([11]; drinking water 0.5 g/liter NAC): ~30%
- decrease of ovalbumin-specific IgG1 ([11]; drinking water 0.5 g/liter NAC): ~30%
- synthesis of other Ig isotypes ([11]; drinking water 1 g NAC/liter): not significantly affected
- IgE and IgG1 antibody responses to ovalbumin ([11]; water containing 0.5-2.0 g/l NAC, 1 μg ovalbumin on aluminum hydroxide i.p.): decreased
- GSH level in blood neutrophils, airway neutrophil count and elastase activity [12]: effective in augmenting the GSH level in blood neutrophils and decreasing the airway neutrophil count and elastase activity
- IgE production by B cells [13]: decreased
- IgG4 production by B cells [13]: decreased
- increase in T cell proliferation [14]: approximately 4 fold
- IFNγ production by T cells ([15]; 0.5-20 mM NAC): not affected
- IL-5 production by T cells ([15]; 0.5-20 mM NAC): not affected
- IL-4 production by T cells ([15]; maximal at 20 mM NAC): decreased in a dose-dependent manner
- IL-2 production by T cells ([15]; up to 5 mM NAC): enhanced
- primary end points including vital capacity [16]: better
- median tmax ([17]; human, in vivo): 1.0 h
- highest non-toxic dose ([17]; in most of the subjects): 800 mg/m^2/day
- plasma t1/2 ([17]; monoexponential plasma decay): 2.4 h

Compound: O=C([O-])c1ccccc1O.[Na+] [SA, sodium salicylate]
- inhibition of TNFR2-mediated activation of NF-kappa B [18]: but not TNFR2-mediated activation of NF-kappa B
- salicylate dose required for inhibition of TNFR1-mediated activation of NF-kappa B [19]: 10 to 20 mM

Compound: O=C(O)c1ccccc1O [salicylate]
- level at which tinnitus may occasionally occur [20]: ≥ 95 µg/mL

Compound: IL-4 (R121D/Y124D)
- course of late asthmatic response after experimental allergen challenge ([21]; asthmatic patients): positively affect
- adverse events ([21]; subcutaneous injection up to 30 mg for up to 13 weeks or inhalation up to 60 mg for up to 4 weeks): few adverse events
- cutaneous wheal response and circulating allergen-specific IgE ([22]; subcutaneous administration for 6 weeks or more): reduced
- allergen-induced airways hyper-responsiveness ([22]; subcutaneously or via nebulization): protect allergic cynomolgus monkeys from allergen-induced airways hyper-responsiveness

Compound: etanercept
- side effects of anti-TNF treatment in the patient [23]: increasing iritis symptoms
- development of allergen-specific sIgG4 during specific immunotherapy [23]: interferes with the development of allergen-specific sIgG4
- Teff-mediated Treg boost [24]: significantly reduced the Teff-mediated Treg boost

Compound: hC3: human complement component C3
- half-life of C3 convertase [25]: 1.5 min

Compound: infliximab
- side effects of anti-TNF treatment in the patient [23]: without major side effects
- development of allergen-specific sIgG4 during specific immunotherapy [23]: interferes with the development of allergen-specific sIgG4
